Patent US20100285959A1, “HERBICIDAL MIXTURES” (priority 2006, published 2010)

Columns and labels:
winter barley (HORVW) = experiment: Test 21 growth chamber, postemergence; format: in vivo, Hordeum vulgare; details: 19 DAA
Experimental: (§1) A test was conducted to evaluate the effects on winter barley (HORVW, Hordeum vulgare L.), winter wheat (TRZAW, Triticum aestivum L.), and several weed species, of mixtures of Compound 2 with the commercial herbicide (2,4-dichlorophenoxy)acetic acid (2,4-D), an auxin mimic. […] Plants were treated postemergence at the 2-4 leaf growth stage, and each treatment was replicated one time. […] Plants were watered as needed. […] Results are from single replicates.

Russian thistle (SASKR) = experiment: Test 23 growth chamber, postemergence; format: in vivo, Salsola kali; details: 21 DAA
Experimental: as §1, with “species” for “species,”, “herbicides” for “herbicide”, “(2,4-D) and (4-chloro-2-methylphenoxy)acetic acid (MCPA),” for “(2,4-D), an”, “mimics.” for “mimic.”, “three times.” for “one time.”, “means of the three” for “from single”

common chickweed (STEME) = experiment: Test 22 growth chamber, postemergence; format: in vivo, Stellaria media; details: 25 DAA
Experimental: as §1, with “species” for “species,”, “herbicides” for “herbicide”, “(2,4-D) and (4-chloro-2-methylphenoxy)acetic acid (MCPA),” for “(2,4-D), an”, “mimics.” for “mimic.”, “stage, except KCHSC, SASKR” for “stage,”, “STEME which were in the 4-8 leaf growth stage. Each” for “each”

Canada horseweed (ERICA) = experiment: Test 9 field trial, emerged weeds before corn planting; format: in vivo, Erigeron canadensis; details: g a.i./ha: Cpd 2 100, Glyphosate 1540, Paraquat 1150
Experimental: (§2) Corn seeds (hybrid ‘Pioneer 34M91 RR’) were planted in mid spring season, about 3.8 cm deep in a silty clay loam soil having a pH of 6.7. Plots were 9.1 m long by 3.0 m. The field was managed using no-till practices. […] Compound 2 and paraquat treatments, alone and in combination, also included a surfactant. Glyphosate, alone and with Compound 2, included ammonium sulfate in the treatment mixture. […] The effects on the weeds in the treated plots and untreated control plots were recorded 7, 14, 23, 30 and 57 days after application. Most of the weed species could not be evaluated at every timing. Corn response was only evaluated 57 days after application. […] Results are the means of the three replicates.

corn (ZEAMD) = experiment: as above; format: in vivo, Zea mays ssp. indentata; details: 57 DAA; g a.i./ha: Cpd 2 100, Glyphosate 1540, Paraquat 1150
Experimental: as §2

red deadnettle (LAMPU) = experiment: Test 3 field trial, emerged weeds before corn planting; format: in vivo, Lamium purpureum; details: Cpd 2 100, glyphosate 1540, paraquat 1150 g a.i./ha, alone or combined
From the text: Corn seeds (hybrid ‘Pioneer 33J56’) were planted in early spring season, 3.8 cm deep in a silt loam soil having 2.4% organic matter and a pH of 6. Plots were 6.1 m long by 2.7 m wide with rows spaced 91.4 cm apart. The field was managed using no-till practices. […] Compound 2 and paraquat treatments, alone and in combination, also included a surfactant. Glyphosate, alone and with Compound 2, included ammonium sulfate in the treatment mixture. […] The effects on the weeds in the treated plots and untreated control plots were recorded 30, 42, 46 and 68 days after application. Most of the weed species could not be evaluated at every timing. Corn response was not evaluated because the growth was highly variable depending on the efficacy of the weed control treatments. […] Results are the means of the three replicates.

[1] = system: henbit deadnettle (LAMAM); experiment: Test 9 field trial, emerged weeds before corn planting; format: in vivo, Lamium amplexicaule; details: g a.i./ha: Cpd 2 100, Glyphosate 1540, Paraquat 1150
Experimental: as §2

[2] = system: Ipomoea grandiflora (IPOGF); experiment: Test 12 field trial, preemergence; format: in vivo; design: scale not given here; details: Cpd 2 or Cpd 1 62 g a.i./ha, Diuron 2000 g a.i./ha
From the text: (§3) In early-mid spring season, corn seeds (hybrid ‘Pioneer 3041’) were planted 5 cm deep and sugarcane nodes (variety RB-72.454) were planted 10 cm deep in separate plots in a clay soil having 2.6% organic matter and a pH of 5.6. Plots were 24 m long by 1.5 m wide with rows spaced 80 cm (corn) or 140 cm (sugarcane) apart. Corn seeds were spaced 15 cm apart and sugarcane nodes were spaced 10 cm apart within the rows. At the same time, weed seeds were broadcast over the surface of separate plots without a crop, one weed species per plot. The weed plots were rotary tilled to incorporate the weed seeds to a variety of depths. The field was managed using conventional tillage practices.

wild spikenard (HPYSU) = experiment: Test 12 field trial, preemergence; format: in vivo; design: scale not given here; details: Cpd 2 or Cpd 1 62 g a.i./ha, Diuron 2000 g a.i./ha
From the text: as §3

slender amaranth (AMAVI) = experiment: Test 12 field trial, preemergence; format: in vivo, Amaranthus viridis; design: scale not given here; details: Cpd 2 or Cpd 1 62 g a.i./ha, Diuron 2000 g a.i./ha
From the text: as §3

wheat (TRZAW) = experiment: Test 30 growth chamber, postemergence; format: in vivo, Triticum aestivum
Experimental: A growth chamber test was conducted to evaluate the effects on the plant species wheat (TRZAW, Triticum aestivum L.) and barley (HORVX, Hordeum vulgare L.) with mixtures of Compound 1 and Compound 2 with glycerol. Wheat and barley seeds were planted in a sandy loam soil having 0.9% organic matter and a pH of 6.3. […] Wheat and barley plants were treated postemergence at the two leaf growth stage for Compound 1 and at the three leaf growth stage for Compound 2. Each treatment was replicated one time. […] Plants were watered as needed. […] Colby's Equation was used to determine herbicidal effects expected from the mixtures.

[3] = 2,4-D or MCPA alone 250 g a.i./ha

SMILES | ERICA Obs (Canada horseweed (ERICA); 7 DAA) | ERICA Obs (Canada horseweed (ERICA); 14 DAA) | ERICA Obs (Canada horseweed (ERICA); 23 DAA) | ERICA Obs (Canada horseweed (ERICA); 30 DAA) | ERICA Obs (Canada horseweed (ERICA); 57 DAA) | ZEAMD Obs (corn (ZEAMD)) | LAMPU Obs (red deadnettle (LAMPU); 30 DAA) | LAMPU Obs (red deadnettle (LAMPU); 42 DAA) | LAMPU Obs (red deadnettle (LAMPU); 46 DAA) | LAMAM Obs ([1]; 7 DAA) | LAMAM Obs ([1]; 14 DAA) | LAMAM Obs ([1]; 23 DAA) | LAMAM Obs ([1]; 30 DAA) | LAMAM Obs ([1]; 57 DAA) | IPOGF Obs ([2]; 15 DAA) | IPOGF Obs ([2]; 29 DAA) | IPOGF Obs ([2]; 48 DAA) | IPOGF Obs ([2]; 61 DAA) | HPYSU Obs (wild spikenard (HPYSU); 15 DAA) | HPYSU Obs (wild spikenard (HPYSU); 29 DAA) | other results
O=C(O)COc1ccc(Cl)cc1Cl [2,4-D, (2,4-dichlorophenoxy)acetic acid] | – | – | – | – | – | – | – | – | – | – | – | – | – | – | – | – | – | – | – | – | Postemergence HORVW Obs (winter barley (HORVW); 2,4-D alone 125 g a.i./ha): 25; Postemergence HORVW Obs (winter barley (HORVW); 2,4-D alone 250 g a.i./ha): 25; Postemergence SASKR Obs (Russian thistle (SASKR); [3]): 63; Postemergence STEME Obs (common chickweed (STEME); [3]): 55
O=C(O)CNCP(=O)(O)O [Glyphosate] | 45% | 76% | 98% | 100% | 84% | 0% | 70% | 52% | 97% | 25% | 37% | 79% | 95% | 66% | – | – | – | – | – | – | –
Nc1nc(C2CC2)nc(C(=O)O)c1Cl [Compound 1, 6-amino-5-chloro-2-cyclopropyl-4-pyrimidinecarboxylic acid] | – | – | – | – | – | – | – | – | – | – | – | – | – | – | 60 | 70 | 60 | 40 | 60 | 60 | HPYSU Obs (wild spikenard (HPYSU); 48 DAA): 70; HPYSU Obs (wild spikenard (HPYSU); 61 DAA): 50; AMAVI Obs (slender amaranth (AMAVI); 15 DAA): 90; AMAVI Obs (slender amaranth (AMAVI); 29 DAA): 60; AMAVI Obs (slender amaranth (AMAVI); 48 DAA): 40; AMAVI Obs (slender amaranth (AMAVI); 61 DAA): 40; TRZAW Obs (wheat (TRZAW); 18 DAA, Cpd 1 1 g a.i./ha): 30%; TRZAW Obs (wheat (TRZAW); 18 DAA, Cpd 1 4 g a.i./ha): 35%; TRZAW Obs (wheat (TRZAW); 18 DAA, Cpd 1 16 g a.i./ha): 45%
COC(=O)c1nc(C2CC2)nc(N)c1Cl [Compound 2, methyl 6-amino-5-chloro-2-cyclopropyl-4-pyrimidinecarboxylate] | 62% | 68% | 75% | 83% | 100% | 0% | 87% | 35% | 100% | 22% | 27% | 50% | 65% | 89% | 50 | 60 | 40 | 40 | 60 | 60 | Postemergence HORVW Obs (winter barley (HORVW); Cpd 2 alone 16 g a.i./ha): 30; Postemergence SASKR Obs (Russian thistle (SASKR); Cpd 2 alone 4 g a.i./ha): 55; Postemergence SASKR Obs (Russian thistle (SASKR); Cpd 2 alone 8 g a.i./ha): 63; Postemergence SASKR Obs (Russian thistle (SASKR); Cpd 2 alone 16 g a.i./ha): 72; HPYSU Obs (wild spikenard (HPYSU); 48 DAA): 50; HPYSU Obs (wild spikenard (HPYSU); 61 DAA): 40; AMAVI Obs (slender amaranth (AMAVI); 15 DAA): 90; AMAVI Obs (slender amaranth (AMAVI); 29 DAA): 60; AMAVI Obs (slender amaranth (AMAVI); 48 DAA): 40; AMAVI Obs (slender amaranth (AMAVI); 61 DAA): 0; Postemergence STEME Obs (common chickweed (STEME); Cpd 2 alone 4 g a.i./ha): 50; Postemergence STEME Obs (common chickweed (STEME); Cpd 2 alone 8 g a.i./ha): 50; Postemergence STEME Obs (common chickweed (STEME); Cpd 2 alone 16 g a.i./ha): 55; TRZAW Obs (wheat (TRZAW); 17 DAA, Cpd 2 1 g a.i./ha): 20%; TRZAW Obs (wheat (TRZAW); 17 DAA, Cpd 2 4 g a.i./ha): 20%; TRZAW Obs (wheat (TRZAW); 17 DAA, Cpd 2 16 g a.i./ha): 35%
